Data taken from US20250152605A1, “METHOD AND DRUG FOR TREATING NEURONAL CEROID LIPOFUSCINOSIS” (priority 2021, published 2025).

Experiments:
[1] = tested on: mouse tail tip fibroblasts (TTF); experiment: qRT-PCR of autophagy-related and lysosomal genes in mouse tail tip fibroblasts; type: cell-based
Protocol: (§1) The cells in the cell-culture dish were collected, extracted using AxyPrep Total RNA Mini Prep Kit or Qiagen AxyPrep Total RNA Mini Prep Kit, and the extracted RNA concentration is measured using Nanodrop; the extracted mRNA was reverse transcribed into cDNA by Transgen's EasyScript® One-Step gDNA Removal and cDNA Synthesis SuperMix and the primers used for reverse transcription were Oligo dT primers; the completion of reverse transcription followed by qRT-PCR reaction through PerfectStart™ Green qPCR SuperMix to detect the expression of the target gene; the qRT-PCR reaction was performed on the Bio-Rad CFX96 Real-Time PCR system; see Table 2 and Table 3 for the 20 μL qRT-PCR reaction system and reaction procedures; data analysis was performed in Prism 7 software using the 2^−ΔΔCt process with GAPDH as internal reference for relative quantification of the expression of the target gene.
Compound G was added to the mouse tail tip fibroblasts (TTF), after incubation for 6 hours, mRNA was extracted, and the transcription level of the autophagy-related genes and the lysosomal genes in the cells was detected.
First, lentivirus packaged with control shRNA or FXR shRNA-2 was used to infect the mouse TTF. After treatment with Compound G, mRNA was extracted for detection of gene transcription.

[2] = tested on: CLN3^Δex7/8 human neural stem cells; experiment: Transcriptome sequencing (RNA-seq) of human neural stem cells; type: cell-based; settings: 6 μM, 6 hours
Protocol: In order to detect the effect of Compound G on treated cells, transcriptome sequencing was performed on neural stem cells treated with Compound G, with specific steps as follows: CLN3^Δex7/8 human neural stem cells were seeded into 2% Matrigel-coated 6-well cell plates to a cell density of 80%; fresh cell culture medium containing 6 μM Compound G or an equal volume of DMSO was added, and each treatment condition for two biological replicates; the neural stem cells were incubated in a 37° C. cell culture incubator for 6 hours; the cell culture medium was aspirated, following by washing once with dPBS, and then intracellular RNA was extracted by Qiagen RNeazy Mini Plus Kit; the extracted RNA was sent to ANNOROAD for RNA quality testing first. The purity of RNA was tested using a Nanophotometer spectrophotometer; the concentration of RNA was tested using a Qubit 3.0 Flurometer; the integrity of the RNA was tested using the Aligent 2100 RNA Nano 6000 Assay kit; 2 μg of RNA was taken from each qualified sample for library construction and quantified using Qubit 3.0 Flurometer.
After diluting the library-building samples to 1 ng/μL, the Aligent 2100 RNA Nano 6000 Assay kit and qPCR were used for quality detection; Illumina's Hiseq PE Cluster kit was used for clustering, and the Hiseq 2500 sequencing platform was used for paired-end sequencing to obtain 150 bp paired-end sequencing reads; FastQC software was used to evaluate the quality of the raw data obtained from sequencing, then TrimGalore was used to remove adapter sequences and low-quality sequences, and filtered data was obtained for subsequent analysis.
Comparation between filtered data and human reference genome hg38 was carried with HISAT2, resulting in Bam file, and the number of counts aligned to each gene was counted by FeatureCount, with gtf (GRCh38.92) file provided by Ensembl as annotation. Ensembl IDs were converted to gene names by BiomaRt R package. The genes with fold change>2 and corrected p<0.05 were screened as differential genes, through differential genes expression analysis with DESeq2 software.
In order to explore the mechanism of Compound G in human neural stem cells, transcriptome sequencing experiments were conducted on wild-type human neural stem cells, CLN3^Δex7/8 human neural stem cells and CLN3^Δex7/8 human neural stem cells after treated with Compound G for 6 hours, and differentially expressed genes were analyzed. […] CLN3^Δex7/8 human neural stem cells treated and untreated with Compound G were clustered together (FIG. 29(b, c)). […] With regard to the RNA sequencing results, the effects of Compound G on the transcription level of TFEB, autophagy-related genes and lysosomal genes were also analyzed.

mouse neural stem cells = experiment: qRT-PCR of autophagy and lysosome-related genes in mouse neural stem cells; type: cell-based; settings: 6 hours
Protocol: as §1
After treating primary (a) neural stem cells and (b) neurons of Cln3 KO) mice for 6 hours, the mRNA was extracted from the cells, reverse-transcribed into cDNA, and transcription levels of autophagy- and lysosome-related genes were detected using qRT-PCR (n=3).
It was speculated from this that the known target FXR of Compound G was expressed at low or no levels in neural lineage cells. […]

Cln3 KO mice [3] = experiment: Immunohistochemical staining of SCMAS in Cln3 KO mouse brain; type: in vivo; settings: Cln3 KO mice treated from 21 days to 2 months of age
[4] = tested on: CLN3^Δex7/8 neural stem cells; experiment: Annexin V and propidium iodide apoptosis staining, flow cytometry; type: cell-based, human; settings: treatment for 48 hours
Protocol: In analyzing the mean fluorescence intensity of neural stem cells and neuronal staining or single cell establishment of NRK cells, flow cytometry was used: the cell medium was aspirated off, after wash with dPBS once, the digestive enzyme corresponding to the cell type was added to digest into single cells; the supernatant was removed by centrifugation, and the cells were resuspended with 1 mL of fresh medium; the cell suspension with filtered through 40 μm filter membrane and the single cell filtrate was collected; the single cell filtrate was transferred to a flow tube and analyzed or sorted using BD FACS Aria III; in the analysis, the fluorescence intensity of 1×10^4 cells for each sample was analyzed to obtain the mean fluorescence intensity (MFI); for sorting, cells were received in 96 well plates with medium, one cell per well to establish a cell line.
Then, whether compound G causes cytotoxicity in neural stem cells was examined. Cell apoptosis was detected after compound G treatment with Annexin V and propidium iodide (PI) staining and analyzed with flow cytometry. Annexin V positive and PI negative represented early apoptotic cells, while Annexin V positive and PI positive represented late apoptotic cells.

Cln3 KO mice [5] = experiment: Body weight, brain tissue mass and toxicity in Cln3 KO mice
Protocol: The control group was Cln3 KO mice whose drinking water contained an equal amount of solvent. Body weight changes were recorded during administration.
Starting from day 21 on which the mice were weaned, Compound G or the solvent was added to the drinking water of Cln3 KO mice, and the weight changes of the mice were recorded. […] When the mice reached six months of age, they were euthanized and the brain tissues were taken out and weighed.

[6] = tested on: CLN3^Δex7/8 neural stem cells; experiment: Lysotracker staining of CLN3^Δex7/8 neural stem cells; type: cell-based, human
Protocol: The cells were stained with Lysotracker, a fluorescent dye that is enriched in acidic lysosomes and emits red fluorescence. The fluorescence intensity of the stained cells was then analyzed using flow cytometry.

SMILES: C/C=C1\C(=O)C[C@H]2[C@@H]3CCC4=CC(=O)CC[C@]4(C)[C@H]3CC[C@]12C [Compound G, (Z)-guggulsterone]
- expression of the autophagy-related genes ([1]; TTF infected with FXR shRNA-2): failed to increase
- transcription level of the autophagy-related genes and the lysosomal genes ([1]; TTF, incubation for 6 hours): significantly increase
- expression of the autophagy-related genes ([1]; control shRNA-infected TTF): significantly increase
- expression levels of NQO1, LPCAT1 and HLA-E [2]: all increased
- gene expression profile (PCA analysis) [2]: did not produce a significant impact
- number of differential genes (fold change >2 and corrected p<0.05) [2]: 3
- differential expression folds of NRF2 downstream genes other than NQO1 ([2]; RNA sequencing): less than 2
- expressions of multiple NRF2 downstream genes ([2]; RNA sequencing): elevated
- transcription level of TFEB and most autophagy-related genes and lysosomal genes ([2]; RNA sequencing): no significant effects
- expression level of the autophagy and lysosome-related genes (mouse neural stem cells): no significant change
- substances (SCMAS) abnormally stored in the brains (Cln3 KO mice [3]): alleviate the amount of the substances abnormally stored in the brains of Cln3 KO mice to a certain extent
- proportions of apoptotic cells (Annexin V / PI) [4]: did not significantly change the proportions of apoptotic cells
- body weight of mice (Cln3 KO mice [5]; 2 or 6 months old, drinking water from day 21): no significant effect
- mass of the mice brain tissue (Cln3 KO mice [5]; 6 months of age): no significant effect
- Lysotracker staining in neural stem cells [6]: significantly improve the Lysotracker staining
